Results reported in patent US9624219B2, “Compound (S) and (R)-N-(2-fluoropyridin-4-yl)-3-methyl-2-(5-methyl-2,4-dioxo-1,2-dihydropyrido[3,4-d]pyrimidin-3(4H)-yl)butanamide and use” (GlaxoSmithKline Intellectual Property Development Limited, priority 2015, dated 2017).
Converted amounts (≈) assume the structure as drawn.

Legend:
[1] = Solubility assessment in FaSSIF (equilibrium solubility); type: physicochemical; conditions: thermodynamic from solid, 4 hr at room temperature, LC-MS
Description: Solubility Assessment in FaSSIF
Organic solvents of HPLC grade were used. Ultra pure water (Milli-Q grade) was used. Buffers were prepared with ultra pure water and filtered using 0.45μ nylon filters.
Determination of Equilibrium Solubility (Assuming Chemical Stability in the Desired Solvent is not a Problem).
• a) 1 mg of solid compound was weighted in one 4 mL glass vial and 1 mL of FaSSIF was added. All these samples were prepared by duplicate. • b) The samples were stirred (roller mixer) for 4 hr at room temperature. If required, additional solid compound (0.1 mg) was added to maintain excess of it (saturated solutions). • c) After 4 hours, the samples were centrifuged (10000 rpm, 10 min.) and the supernatants were transfer to an HPLC vial and analysed by LC-MS (previous dilution with mobile phase when needed). • d) The pH of the final solution in each sample was measured with a pH-meter (WTW pH330i and a pH-electrode Sentix 41). LC-MS Assay for Analytical Quantification
All supernatants were analysed by LC-MS. Quantification of those samples was carried out against calibration curves obtained from 1 mg/mL DMSO (Aldrich cat. ref.: 27685-5) stock solutions, by dilution with the mobile phase used in the chromatography. Depending on the solubility range, U.V. (1 μg/mL to 100 μg/mL) or MS (1 μg/mL to 1 ng/mL) detector were used in the quantification. […]

[2] = system: Plasmodium falciparum Pf3D7^0087/N9; test: P. falciparum in vivo efficacy assay (mouse model); set-up: species or system NODscidIL2Rγ^null mice engrafted with human erythrocytes; conditions: interval of confidence 95%
Description: P. falciparum In Vivo Efficacy Assay.
Antimalarial in vivo efficacy was determined using the P. falciparum mouse model following the procedure described in: Jimenez-Diaz, M. B., Mulet, T., Viera, S., Gómez, V., Garuti, H., Ibañez, J., Alvarez-Doval, A., Shlutz, D. L., Martinez, A., Improved Murine Model Of Malaria Using Plasmodium falciparum (Competent Strains and Non-Myelodepleted NOD-scid IL2R_null Mice Engrafted with Human Erythrocytes) Antimicrob. Agents Chemother 2009, 53 (10), 4533-4536.
The goal of this study is to assess the therapeutic efficacy of Example 1 against Plasmodium falciparum Pf3D7^0087/N9 growing in peripheral blood of NODscidIL2Rγ^null mice engrafted with human erythrocytes. The levels of Example 1 are measured in serial peripheral blood samples obtained from each mouse of the efficacy experiment during the first 23 hrs after the first dose. The area under the curve of levels of compound is used to estimate the exposure in blood during the first 23 hours after the first administration (AUC0-23h).
The effect of Example 1 on P. Falciparum Pf3D7^0087/N9 was assessed by microscopy and flow cytometry.

P. Falciparum Pf3D7A = test: P. falciparum growth inhibition assay ([3H]hypoxanthine incorporation); type: cell-based; conditions: Plasmodium falciparum, 48 h, read-out: average Pf IC50
Description: P. falciparum Growth Inhibition Assay. The sensitivity of P. falciparum infected erythrocytes to the compound is determined in triplicate using the [^3H]hypoxanthine incorporation method with an inoculum of 0.5% parasitemia (ring stage) and 2% hematocrit. The parasites were grown in RPMI 1640 and supplemented with […] (or 10% serum). Plates are incubated at 37° C., 5% CO2, 5% O2, 90% N2. After 24 h of incubation, [^3H]hypoxanthine is added and plates are incubated for another 24 h. After that period, plates are harvested on a glass fiber filter using a TOMTEC Cell harvester 96. Filters are dried and melt on scintillator sheets and the bound radioactivity is quantified by use of a Wallac Microbeta Trilux (Model 1450 LS-Perkin Elmer). IC50s are determined using Grafit 5 program (Grafit program; Erithacus Software, Horley, Surrey, United Kingdom).

SMILES: Cc1cncc2[nH]c(=O)n([C@H](C(=O)Nc3ccnc(F)c3)C(C)C)c(=O)c12 [Example 1, (S)—N-(2-fluoropyridin-4-yl)-3-methyl-2-(5-methyl-2,4-dioxo-1,2-dihydropyrido[3,4-d]pyrimidin-3(4H)-yl)butanamide]
- solubility at 4 h [1]: 426 µg/mL (≈ 1150 µM)
- mean ED90 ([2]; P. falciparum Pf3D7^0087/N9 in humanised NODscidIL2Rγnull mice): 0.53 mg/kg
- mean AUCED90 ([2]; blood exposure at ED90 (AUC0-23h after first dose), P. falciparum mouse model): 0.18 μg·h·mL-1·day-1
- IC50 (P. Falciparum Pf3D7A): 32 nM
